Results taken from patent US20010039287A1, “AROMATIC SULFONE HYDROXAMIC ACID METALLOPROTEASE INHIBITOR” (priority 1997, published 2001).
Like-named read-outs stand apart in the source and are kept apart here.

Legend:
Test in all cases: biochemical
[1] = biological target: recombinant human MMP-13 (Homo sapiens, UniProt P45452); conditions: Inhibition Table B; read-out: MMP-13 IC50
[2] = biological target: T1, recombinant human MMP-1 (Homo sapiens, UniProt P03956); conditions: read-out: MMP-1 IC50
T1 construct: made in house; host or cells: transfected HT-1080 cells (provided by Dr. Harold Welgus, Washington University)
T1 sequence (P03956 100-469): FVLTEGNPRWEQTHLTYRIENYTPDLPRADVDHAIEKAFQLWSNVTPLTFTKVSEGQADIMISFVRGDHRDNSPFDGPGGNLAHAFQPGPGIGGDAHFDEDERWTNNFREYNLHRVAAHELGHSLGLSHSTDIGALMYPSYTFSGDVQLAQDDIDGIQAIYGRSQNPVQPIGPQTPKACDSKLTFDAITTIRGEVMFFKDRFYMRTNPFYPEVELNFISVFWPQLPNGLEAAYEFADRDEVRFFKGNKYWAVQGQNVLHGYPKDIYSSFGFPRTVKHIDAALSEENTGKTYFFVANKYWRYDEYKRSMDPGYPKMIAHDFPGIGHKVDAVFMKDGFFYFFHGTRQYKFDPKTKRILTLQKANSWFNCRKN

[3] = biological target: T2, recombinant human MMP-2 (Homo sapiens, UniProt P08253); conditions: Inhibition Table B; read-out: MMP-2 IC50
T2 sequence (P08253 110-660): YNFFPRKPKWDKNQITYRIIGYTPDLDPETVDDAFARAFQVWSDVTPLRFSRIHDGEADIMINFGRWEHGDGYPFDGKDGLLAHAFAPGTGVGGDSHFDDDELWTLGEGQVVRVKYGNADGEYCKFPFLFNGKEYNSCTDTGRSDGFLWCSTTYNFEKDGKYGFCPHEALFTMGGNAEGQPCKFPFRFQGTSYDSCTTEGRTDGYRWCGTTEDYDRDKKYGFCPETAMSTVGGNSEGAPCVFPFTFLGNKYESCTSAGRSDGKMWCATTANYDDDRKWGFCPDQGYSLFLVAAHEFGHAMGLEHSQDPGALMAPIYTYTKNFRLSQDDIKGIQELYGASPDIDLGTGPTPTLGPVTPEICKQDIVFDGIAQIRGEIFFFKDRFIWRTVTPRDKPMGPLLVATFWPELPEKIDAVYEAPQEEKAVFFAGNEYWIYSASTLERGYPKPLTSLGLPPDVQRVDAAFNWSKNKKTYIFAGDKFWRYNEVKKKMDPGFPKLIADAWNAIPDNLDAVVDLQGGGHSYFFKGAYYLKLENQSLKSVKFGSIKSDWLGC

O=C(NO)C1(S(=O)(=O)c2ccc(Oc3ccc(Cl)c(F)c3)cc2)CCOCC1 [Example 122, 4-[[4-(4-chloro-3-fluorophenoxy)phenyl]sulfonyl]-tetrahydro-N-hydroxy-2H-pyran-4-carboxamide]
IC50 [1]: 0.15 nM | IC50 ([2]; Inhibition Table B): 600 nM | IC50 [3]: 0.1 nM

CCOC(=O)N1CCN(c2ccc(S(=O)(=O)C3(C(=O)NO)CCOCC3)cc2)CC1 [Example 126]
IC50 [1]: 10 nM | IC50 ([2]; Inhibition Table B): 8000 nM | IC50 [3]: 11.3 nM

O=C(NO)C1(S(=O)(=O)c2ccc(N3CCN(CCO)CC3)cc2)CCOCC1 [Example 127]
IC50 [1]: 40 nM | IC50 [2]: > 10000 nM | IC50 [3]: 37 nM

COc1ccccc1N1CCN(c2ccc(S(=O)(=O)C3(C(=O)NO)CCOCC3)cc2)CC1 [Example 128]
IC50 [1]: 20 nM | IC50 ([2]; Inhibition Table B): > 10000 nM | IC50 [3]: 23.8 nM

O=C(NCC(F)(F)F)C1CCN(c2ccc(S(=O)(=O)C3(C(=O)NO)CCOCC3)cc2)CC1 [Example 180]
IC50 [1]: 4 nM | IC50 ([2]; Inhibition Table B): 5000 nM | IC50 [3]: 128 nM

O=C(NCc1ccc(F)cc1)C1CCN(c2ccc(S(=O)(=O)C3(C(=O)NO)CCOCC3)cc2)CC1 [Example 197]
IC50 [1]: 8 nM | IC50 ([2]; Inhibition Table B): 7000 nM | IC50 [3]: 145 nM

O=C(C1CCCCC1)N1CCN(c2ccc(S(=O)(=O)C3(C(=O)NO)CCOCC3)cc2)CC1 [Example 200]
IC50 [1]: 17.5 nM | IC50 ([2]; Inhibition Table B): > 10000 nM | IC50 [3]: 24 nM

O=C(C1CCc2ccccc2C1)N1CCN(c2ccc(S(=O)(=O)C3(C(=O)NO)CCOCC3)cc2)CC1 (stereo not drawn) [Example 201]
IC50 [1]: 13.6 nM | IC50 ([2]; Inhibition Table B): > 10000 nM | IC50 [3]: 22.4 nM

O=C(N1CCCCC1)N1CCN(c2ccc(S(=O)(=O)C3(C(=O)NO)CCOCC3)cc2)CC1 [Example 206]
IC50 [1]: 20 nM | IC50 ([2]; Inhibition Table B): > 10000 nM | IC50 [3]: > 10 nM

O=C(NO)C1(S(=O)(=O)c2ccc(-c3ccccc3)cc2)CCOCC1 [Example 213]
IC50 [1]: < 1 nM | IC50 ([2]; Inhibition Table B): 310 nM | IC50 [3]: < 1 nM

O=C(NO)C1(S(=O)(=O)c2ccc(-c3ccsc3)cc2)CCOCC1 [Example 215]
IC50 [1]: < 1 nM | IC50 ([2]; Inhibition Table B): 250 nM | IC50 [3]: < 1 nM

O=C(NO)C1(S(=O)(=O)c2ccc(-c3cccc(C(F)(F)F)c3)cc2)CCOCC1 [Example 219]
IC50 [1]: < 1 nM | IC50 ([2]; Inhibition Table B): > 10000 nM | IC50 [3]: < 1 nM

O=C(NO)C1(S(=O)(=O)c2ccc(-c3cccc4ccccc34)cc2)CCOCC1 [Example 224]
IC50 [1]: 16.7 nM | IC50 ([2]; Inhibition Table B): > 10000 nM | IC50 [3]: 18.1 nM

Cc1ccccc1-c1ccc(S(=O)(=O)C2(C(=O)NO)CCOCC2)cc1 [Example 225]
IC50 [1]: 70 nM | IC50 ([2]; Inhibition Table B): > 10000 nM | IC50 [3]: 54 nM

CC(C)(C)c1ccc(-c2ccc(S(=O)(=O)C3(C(=O)NO)CCOCC3)cc2)cc1 [Example 226]
IC50 [1]: 6 nM | IC50 ([2]; Inhibition Table B): > 10000 nM | IC50 [3]: 18.6 nM

O=C(NO)C1(S(=O)(=O)c2ccc(-c3ccc4ccccc4c3)cc2)CCOCC1 [Example 227]
IC50 [1]: < 1 nM | IC50 ([2]; Inhibition Table B): > 10000 nM | IC50 [3]: < 1 nM

O=Cc1cccc(-c2ccc(S(=O)(=O)C3(C(=O)NO)CCOCC3)cc2)c1 [Example 228]
IC50 [1]: < 1 nM | IC50 ([2]; Inhibition Table B): 600 nM | IC50 [3]: < 1 nM

O=Cc1ccccc1-c1ccc(S(=O)(=O)C2(C(=O)NO)CCOCC2)cc1 [Example 230]
IC50 [1]: > 100 nM | IC50 ([2]; Inhibition Table B): > 10000 nM | IC50 [3]: > 100 nM

O=Cc1ccc(-c2ccc(S(=O)(=O)C3(C(=O)NO)CCOCC3)cc2)cc1 [Example 231]
IC50 [1]: < 1 nM | IC50 ([2]; Inhibition Table B): 650 nM | IC50 [3]: < 1 nM

Nc1cccc(-c2ccc(S(=O)(=O)C3(C(=O)NO)CCOCC3)cc2)c1 [Example 232]
IC50 [1]: < 1 nM | IC50 ([2]; Inhibition Table B): < 100 nM | IC50 [3]: < 1 nM

N,N-dimethyl-5-[4-[[tetrahydro-4-1[(hydroxyamino)-carbonyl]-2H-pyran-4-yl]sulfonyl]-phenoxy]-1H-indole-2-carboxamide, Trifluoroacetic Acid Salt [Example 124]
IC50 [1]: 1.1 nM | IC50 ([2]; Inhibition Table B): 1000 nM | IC50 [3]: 0.5 nM
